Source: patent US8742110B2, “Spiroxazolidinone compounds” (Merck Sharp & Dohme Corp., priority 2010, dated 2014)
Counter-ions that a name gives are not always drawn.

Target: SSTR5 (Homo sapiens (Human), UniProt P35346)
Experiment: SSTR5 binding assay
Conditions: CHO-K1 membranes expressing cloned human SSTR5
Procedure: The receptor-ligand binding assays of all 5 subtype of SSTRs were performed with membranes isolated from Chinese hamster ovary (CHO)-K1 cells stably expressing the cloned human somatostatin receptors in 96-well format as previous reported.
The stable cell lines for SSTR1-SSTR5 were developed by stably transfecting with DNA for all five SSTRs using Lipofectamine. […] The assay buffer consisted of 50 mM TrisHCl (pH 7.8) with 1 mM EGTA, […] MgCl2, leupeptin (10 μg/mL), pepstatin (10 μg/mL), bacitracin (200 μg/mL), and aprotinin (0.5 μg/mL). CHO-K1 cell membranes, radiolabeled somatostatin, and unlabeled test compounds were resuspended or diluted in this assay buffer. Unlabeled test compounds were examined over a range of concentrations from 0.01 nM to 10,000 nM.
Compounds exemplified were tested in the SSTR5 binding assay.

SSTR5, sequence (P35346 whole entry): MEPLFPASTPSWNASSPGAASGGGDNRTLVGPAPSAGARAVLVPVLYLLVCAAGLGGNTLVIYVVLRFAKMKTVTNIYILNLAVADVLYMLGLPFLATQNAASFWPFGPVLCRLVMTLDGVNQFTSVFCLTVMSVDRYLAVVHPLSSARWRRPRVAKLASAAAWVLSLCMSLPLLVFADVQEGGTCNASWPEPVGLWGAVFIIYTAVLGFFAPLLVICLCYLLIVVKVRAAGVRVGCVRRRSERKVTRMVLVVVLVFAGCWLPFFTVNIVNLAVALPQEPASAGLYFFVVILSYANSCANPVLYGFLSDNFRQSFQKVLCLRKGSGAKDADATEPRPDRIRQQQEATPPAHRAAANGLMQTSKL

IC50 [nM]	SMILES
2.23	CC(C)(C)n1cc(CN2CCC3(CC2)CN(c2ccc(C(=O)O)cc2)C(=O)O3)c(-c2ccc(F)c(F)c2F)n1 [Example 1-1, 4-(8-{[1-tert-Butyl-3-(2,3,4-trifluorophenyl)-1H-pyrazol-4-yl]methyl}-2-oxo-1-oxa-3,8-diazaspiro[4.5]dec-3-yl)benzoic acid, TFA salt]
0.943	O=C(O)c1ccc(N2CC3(CCN(Cc4cn(C5CCCCC5)nc4-c4ccc(F)c(Cl)c4)CC3)OC2=O)cc1 [Example 1-2, 4-(8-{[3-(3-Chloro-4-fluorophenyl)-1-cyclohexyl-1H-pyrazol-4-yl]methyl}-2-oxo-1-oxa-3,8-diazaspiro[4.5]dec-3-yl)benzoic acid, TFA salt]
2.81	O=C(O)c1ccc(N2CC3(CCN(Cc4cn(-c5ccccc5)nc4-c4ccccc4)CC3)OC2=O)cc1 [Example 1-3, 4-{8-[(1,3-Diphenyl-1H-pyrazol-4-yl)methyl]-2-oxo-1-oxa-3,8-diazaspiro[4.5]dec-3-yl}benzoic acid, TFA salt]
4.59	COc1ccc(-c2nn(C3CC3)cc2CN2CCC3(CC2)CN(c2ccc(C(=O)O)cc2)C(=O)O3)cc1 [Example 1-4, 4-(8-{[1-Cyclopropyl-3-(4-methoxyphenyl)-1,1-pyrazol-4-yl]methyl}-2-oxo-1-oxa-3,8-diazaspiro[4.5]dec-3-yl)benzoic acid, TFA salt]
1.53	O=C(O)c1ccc(N2CC3(CCN(Cc4cn(C5CCCCC5)nc4-c4cccc(C(F)(F)F)c4)CC3)OC2=O)cc1 [Example 1-5, 4-[8-({1-Cyclohexyl-3-[3-(trifluoromethyl)phenyl]-1H-pyrazol-4-yl}methyl)-2-oxo-1-oxa-3,8-diazaspiro[4.5]dec-3-yl]benzoic acid, TFA salt]
1.54	Cc1ccc(-n2cc(CN3CCC4(CC3)CN(c3ccc(C(=O)O)cc3)C(=O)O4)c(-c3ccc(F)c(F)c3F)n2)c(C)c1 [Example 1-6, 4-(8-{[1-(2,4-Dimethylphenyl)-3-(2,3,4-trifluorophenyl)-1H-pyrazol-4-yl]methyl}-2-oxo-1-oxa-3,8-diazaspiro[4.5]dec-3-yl)benzoic acid, TFA salt]
2.62	CC(C)(C)n1cc(CN2CCC3(CC2)CN(c2ccc(C(=O)O)cc2)C(=O)O3)c(-c2cc(F)c(F)cc2F)n1 [Example 1-7, 4-(8-{[1-tert-Butyl-3-(2,4,5-trifluorophenyl)-1H-pyrazol-4-yl]methyl}-2-oxo-1-oxa-3,8-diazaspiro[4.5]dec-3-yl)benzoic acid, TFA salt]
2.16	CC(C)(C)n1cc(CN2CCC3(CC2)CN(c2ccc(C(=O)O)cc2)C(=O)O3)c(-c2c(F)cc(F)cc2F)n1 [Example 1-8, 4-(8-{[1-tert-Butyl-3-(2,4,6-trifluorophenyl)-1H-pyrazol-4-yl]methyl}-2-oxo-1-oxa-3,8-diazaspiro[4.5]dec-3-yl)benzoic acid, TFA salt]
2	COc1ccc(-c2nn(-c3ccccc3)cc2CN2CCC3(CC2)CN(c2ccc(C(=O)O)cc2)C(=O)O3)cc1 [Example 1-9, 4-(8-{[3-(4-Methoxyphenyl)-1-phenyl-1H-pyrazol-4-yl]methyl}-2-oxo-1-oxa-3,8-diazaspiro[4.5]dec-3-yl)benzoic acid, TFA salt]
2.86	COc1ccc(-c2nn(C(C)(C)C)cc2CN2CCC3(CC2)CN(c2ccc(C(=O)O)cc2)C(=O)O3)cc1 [Example 1-10, 4-(8-{[1-tert-Butyl-3-(4-methoxyphenyl)-1H-pyrazol-4-yl]methyl}-2-oxo-1-oxa-3,8-diazaspiro[4.5]dec-3-yl)benzoic acid, TFA salt]
6.24	Cc1cc(N2CC3(CCN(Cc4cn(C(C)(C)C)nc4-c4cc(F)c(Cl)cc4F)CC3)OC2=O)ccc1C(=O)O [Example 1-11, 4-(8-{[1-tert-Butyl-3-(4-chloro-2,5-difluorophenyl)-1H-pyrazol-4-yl]methyl}-2-oxo-1-oxa-3,8-diazaspiro[4.5]dec-3-yl)-2-methylbenzoic acid, TFA salt]
